This note sets out measurements from ChEMBL document CHEMBL5257034, “Hybrid molecules: The privileged scaffolds for various pharmaceuticals” (Eur J Med Chem, 2016).

Test [1] deals with T1, Prostaglandin G/H synthase 2 (Rattus norvegicus, UniProt P35355).
T1 sequence (P35355 whole entry): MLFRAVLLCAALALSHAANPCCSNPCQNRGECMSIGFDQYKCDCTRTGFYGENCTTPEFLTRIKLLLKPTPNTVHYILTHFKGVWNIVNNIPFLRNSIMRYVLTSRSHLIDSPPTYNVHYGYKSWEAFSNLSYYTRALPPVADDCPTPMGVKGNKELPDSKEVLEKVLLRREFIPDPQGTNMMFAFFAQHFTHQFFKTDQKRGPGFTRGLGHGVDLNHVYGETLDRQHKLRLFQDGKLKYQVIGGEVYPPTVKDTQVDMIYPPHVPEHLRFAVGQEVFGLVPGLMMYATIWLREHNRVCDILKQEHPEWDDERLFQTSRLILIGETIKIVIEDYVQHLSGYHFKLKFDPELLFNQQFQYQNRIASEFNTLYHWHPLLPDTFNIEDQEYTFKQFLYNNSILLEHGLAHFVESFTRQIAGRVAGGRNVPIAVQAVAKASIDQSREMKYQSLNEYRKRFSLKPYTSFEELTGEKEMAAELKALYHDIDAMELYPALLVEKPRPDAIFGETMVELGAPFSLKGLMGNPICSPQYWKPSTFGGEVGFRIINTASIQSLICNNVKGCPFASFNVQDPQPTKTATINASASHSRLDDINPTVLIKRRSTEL
The experiment in a line: Inhibition of COX2 in rat macrophages using arachidonic acid as substrate preincubated with compound for 30 mins followed by substrate addition and measured after 20 mins by EIA. Type of test: cell-based, Macrophage.

Test [2] addresses T2, Polyunsaturated fatty acid 5-lipoxygenase (Rattus norvegicus, UniProt P12527).
T2 sequence (P12527 whole entry): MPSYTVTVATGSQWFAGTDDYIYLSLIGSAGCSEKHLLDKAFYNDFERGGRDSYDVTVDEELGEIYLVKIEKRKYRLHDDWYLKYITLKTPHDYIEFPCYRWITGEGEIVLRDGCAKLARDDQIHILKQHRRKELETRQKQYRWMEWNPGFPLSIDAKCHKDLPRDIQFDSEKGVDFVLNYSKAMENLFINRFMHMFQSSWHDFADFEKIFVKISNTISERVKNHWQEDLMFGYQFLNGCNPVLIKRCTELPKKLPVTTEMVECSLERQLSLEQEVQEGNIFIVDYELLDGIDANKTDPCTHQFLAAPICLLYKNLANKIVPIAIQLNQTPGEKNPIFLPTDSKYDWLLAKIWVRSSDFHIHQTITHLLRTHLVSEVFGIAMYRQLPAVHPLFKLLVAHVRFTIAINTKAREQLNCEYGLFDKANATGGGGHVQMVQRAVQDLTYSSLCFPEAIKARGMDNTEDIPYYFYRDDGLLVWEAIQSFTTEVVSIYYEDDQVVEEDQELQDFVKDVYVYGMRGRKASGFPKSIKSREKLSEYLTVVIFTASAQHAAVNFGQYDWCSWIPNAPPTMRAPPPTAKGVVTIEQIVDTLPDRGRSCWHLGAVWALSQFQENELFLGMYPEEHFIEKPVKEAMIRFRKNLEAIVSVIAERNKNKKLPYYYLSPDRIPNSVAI
The experiment in a line: Inhibition of 5-LOX in Sprague-Dawley rat leukocytes preincubated for 30 mins followed by calcium ionophore A23187 addition and measured after 20 mins by EIA. It counts as cell-based, Leucocyte.

Test [3] can be described thus: Selectivity index, ratio of IC50 for inhibition of COX2 in rat macrophages to IC50 for inhibition of COX1 in calf endotheliocyte.

Molecules are shown by their SMILES.

In the case of `CS(=O)(=O)c1ccc(-c2nc(SCCN(O)C(N)=O)nn2-c2ccc(Br)cc2)cc1`, the values for the half-maximal inhibitory concentration (IC50) in test [1] and in test [2] were 150 nM and 850 nM, respectively. Besides, the Ratio IC50 in test [3] was found to be 0.015.

As a reminder, the IC50 is the concentration that inhibits the measured activity by half.
